Data as given in US11400059B2, “Treatment of pain and/or pain related symptoms associated with dysmenorrhea” (ALYRA BIOTECH PTY LTD, priority 2017, dated 2022).

How the values were obtained:
[1] = tested on: HEK293/Null; assay: Antagonist screening on RIG-I−/MDA-5− control cell line stimulated with hIFNα; assay type: cell-based; conditions: stimulated with recombinant hIFNα at 100 IU/mL
Experimental: RIG-I and MDA-5 stimulation were tested by assessing IRF3 activation in HEK293 cells expressing human RIG-I or MDA-5 genes. The activity of the test articles was tested on human RIG-I and MDA-5 expressing cells as a potential agonist or antagonist. The test articles were evaluated at one concentration and compared to control ligands. This step was performed in triplicate. The results are provided as Relative Luminescence Units (RLUs).
RIG-I^−/MDA-5^− Cell Lines: HEK293/Null: Control for human RIG-I and MDA-5 Poly(I:C)HMW/LyoVec at 1 μg/mL. Antagonist: 500 ng/mL 5′ppp-dsRNA/LyoVec at 1 μg/mL. Antagonist: 500 ng/mL hIFNα at 1000 IU/mL. Antagonist: 100 IU/mL.
In a 96-well plate (200 μL total volume) containing the appropriate cells (25,000-50,000 cells/well), 20 μL of the test article or of the positive control ligand was added to the wells. For the antagonist assay, the test article was incubated with the cells, at 37° C. with 5% CO2, for 30 minutes prior to the addition of the positive control ligand to the wells. After 20 hour incubation, activation of the IRF pathway was monitored using a luciferase detection assay. Luciferase activity was assayed in triplicate from the supernatant of the induced cells, and the relative luminescence units (RLUs) are detected by a Promega GloMax Luminometer.

[2] = target: T1, Human NOD2 (Homo sapiens, UniProt Q9HC29); assay: Human NLR antagonist screening, NF-κB SEAP reporter in HEK293 cells; assay type: cell-based; conditions: antagonist mode, Ami 1 μM, +L18-MDP 50 ng/mL, No Sample 18, Control− 1
T1 construct: expressed in transfected cells; host or cells: HEK293
T1 sequence (Q9HC29 whole entry): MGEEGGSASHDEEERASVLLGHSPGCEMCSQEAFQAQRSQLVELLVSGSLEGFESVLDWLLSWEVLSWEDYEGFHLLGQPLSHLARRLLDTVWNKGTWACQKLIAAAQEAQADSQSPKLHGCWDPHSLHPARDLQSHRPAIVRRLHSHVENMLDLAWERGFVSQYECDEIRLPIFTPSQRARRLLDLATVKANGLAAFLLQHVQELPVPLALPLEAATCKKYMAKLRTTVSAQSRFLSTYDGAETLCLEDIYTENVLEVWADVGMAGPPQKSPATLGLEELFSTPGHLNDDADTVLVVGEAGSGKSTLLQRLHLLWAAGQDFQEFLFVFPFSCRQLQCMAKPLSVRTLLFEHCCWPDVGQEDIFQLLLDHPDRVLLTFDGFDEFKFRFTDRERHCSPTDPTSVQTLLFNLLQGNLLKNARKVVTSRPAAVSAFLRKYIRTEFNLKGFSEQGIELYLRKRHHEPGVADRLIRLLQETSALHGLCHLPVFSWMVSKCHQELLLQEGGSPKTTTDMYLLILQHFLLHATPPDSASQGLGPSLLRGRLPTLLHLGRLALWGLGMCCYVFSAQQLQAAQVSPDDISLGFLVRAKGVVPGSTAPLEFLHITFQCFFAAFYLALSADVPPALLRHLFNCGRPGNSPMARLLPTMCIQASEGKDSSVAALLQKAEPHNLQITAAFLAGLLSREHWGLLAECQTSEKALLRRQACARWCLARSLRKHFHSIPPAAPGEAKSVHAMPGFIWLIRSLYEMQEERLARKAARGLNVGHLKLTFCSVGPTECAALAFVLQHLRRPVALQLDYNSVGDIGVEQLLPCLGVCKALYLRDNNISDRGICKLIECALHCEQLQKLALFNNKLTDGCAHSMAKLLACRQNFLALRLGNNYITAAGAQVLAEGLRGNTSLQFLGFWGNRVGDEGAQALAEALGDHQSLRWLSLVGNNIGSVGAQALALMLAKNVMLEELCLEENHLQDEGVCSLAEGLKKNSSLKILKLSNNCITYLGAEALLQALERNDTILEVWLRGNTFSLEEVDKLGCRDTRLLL
Experimental: Toll-Like Receptor (TLR), NOD-Like Receptor (NLR) and C-Type Lectin Receptor (CLR) stimulation were tested by assessing NF-κB activation in HEK293 cells expressing a given TLR, NLR or CLR. The activity of the test articles was tested at one concentration and compared to control ligands. These steps were performed in triplicate. hNOD2: L18-MDP at 100 ng/mL Antagonist: 50 ng/mL. In a 96-well plate (200 μL total volume) containing the appropriate cells (50,000-75,000 cells/well), 20 μL of the test article or the positive control ligand was added to the wells. For the antagonist assay, the test article was incubated with the cells, at 37° C. with 5% CO2, for 30 minutes prior to the addition of the positive control ligand to the wells. The media added to the wells was designed for the detection of NF-κB induced SEAP expression. After a 16-24 hr incubation the optical density (OD) was read at 650 nm on a Molecular Devices SpectraMax 340PC absorbance detector. Fold induction (ratio of average induced value to average non-induced value) was determined for each TLR, NOD1, NOD2, Dectin-1a, Dectin-1b.

With `CN(C)CCC=C1c2ccccc2CCc2ccccc21` [Amitriptyline] the “effect on RIG-I−/MDA-5− control cell line” value [1] was “inhibitory effect”, the “Fold Induction” value [2] was “slight inhibitory effect” and the “Fold Induction” value ([2]; listed as Ami) was 17.
